Source: PMC10451623 (Antioxidants, 2023)

Experiments:
human PPARδ = target: T1, human PPARδ (Homo sapiens, UniProt Q03181); test: Transactivation assay (GAL4–hPPARδ-LBD chimera, luciferase reporter, COS-7 cells); assay type: cell-based; conditions: for Emax: COS-7, read-out: Efficacy, PPARδ transactivation (% of the maximal response); for EC50: COS-7 cells, GAL4–hPPARδ-LBD
T1 construct: expressed in transfected cells; host or cells: COS-7
T1 sequence (Q03181 211-439 limits assumed): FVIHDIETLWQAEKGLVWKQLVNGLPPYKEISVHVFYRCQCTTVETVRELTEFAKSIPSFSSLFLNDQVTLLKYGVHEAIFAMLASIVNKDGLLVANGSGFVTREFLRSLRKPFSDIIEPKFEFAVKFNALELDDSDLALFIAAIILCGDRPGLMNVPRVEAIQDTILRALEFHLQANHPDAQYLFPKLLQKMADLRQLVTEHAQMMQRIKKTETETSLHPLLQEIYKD
Protocol: (§1) The pSG5-GAL–hPPARα/δ/γ plasmids express fusion proteins comprising the yeast transcription factor GAL4 DNA-binding domain and each of the human PPARα/δ/γ-LBDs. The MH100(UAS)×4-tk-Luc plasmid contains four copies of the MH100 GAL4 binding site and the Firefly luciferase gene. The cells were transfected with those plasmids and were treated with various PPAR ligands, and both Firefly and Renilla luciferase activities were measured using the Dual-Glo Luciferase Assay System (Promega, Madison, WI, USA) as described previously. […] GW1929 was purchased from Sigma-Aldrich (St. Louis, MO, USA).
(§2) For the undertaking of the comparison of the potency, efficacy, and selectivity of the five PPAR ligands (Figure 1A) against the PPAR subtypes, we evaluated their PPARα/δ/γ activation using three different methods: a cell-based transactivation assay, a coactivator recruitment assay, and a thermal stability assay, as we previously performed on three fibrates (namely, bezafibrate, fenofibric acid, and pemafibrate). The cell-based transactivation assay utilizing the Gal4–PPAR-LBD system is the most widely used method for the determination of PPAR activation by certain ligands, although their responses depend on the used cell types in which several coactivators with altered functions are differentially expressed.
(§3) Figure 1 LBD-mediated human PPARα/δ/γ transactivation by PPAR ligands. (A) Chemical structures of the five PPAR ligands used in this study. […] Data are presented as the mean ± standard error (SE) of three independent experiments with duplicate samples.

human PPARγ = target: T2, human PPARγ (Homo sapiens, UniProt P37231); test: Transactivation assay (GAL4–hPPARγ-LBD chimera, luciferase reporter, COS-7 cells); assay type: cell-based; conditions: for Emax: 100% = 1 µM GW1929, read-out: Efficacy, PPARγ transactivation (% of the maximal response); for EC50: GAL4–hPPARγ-LBD
T2 construct: expressed in transfected cells; host or cells: COS-7
T2 sequence (P37231 238-503 limits assumed): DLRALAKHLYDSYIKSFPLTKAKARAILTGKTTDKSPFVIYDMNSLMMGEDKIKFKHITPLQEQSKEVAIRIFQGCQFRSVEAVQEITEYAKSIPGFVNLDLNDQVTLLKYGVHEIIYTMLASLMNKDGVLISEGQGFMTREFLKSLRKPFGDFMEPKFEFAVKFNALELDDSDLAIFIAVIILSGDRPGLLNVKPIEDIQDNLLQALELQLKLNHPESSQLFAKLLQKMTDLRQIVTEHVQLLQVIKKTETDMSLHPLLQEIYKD
Protocol: as §1, §2, §3

PPARα-LBD = target: T3, PPARα-LBD (Homo sapiens, UniProt Q07869); test: Thermal stability assay using circular dichroism spectroscopy; assay type: binding; parameters: Human PPARα-LBD (amino acids 200–468); His tag (pET28a) (N); made in house; host or cells: Rosetta (DE3) pLysS (E. coli); conditions: CD at 222 nm; 10 µM LBD; GW7647 at 10 µM
T3 sequence (Q07869 200-468): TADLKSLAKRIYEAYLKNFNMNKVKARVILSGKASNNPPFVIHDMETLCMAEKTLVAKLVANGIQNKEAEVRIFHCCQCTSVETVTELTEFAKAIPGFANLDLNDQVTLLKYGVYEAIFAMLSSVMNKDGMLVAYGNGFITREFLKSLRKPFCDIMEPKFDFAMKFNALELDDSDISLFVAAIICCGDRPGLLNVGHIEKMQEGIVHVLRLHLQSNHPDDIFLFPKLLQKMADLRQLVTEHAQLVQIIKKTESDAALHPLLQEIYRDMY
Protocol: PPARα/δ/γ-LBD proteins (10 µM) were incubated with different concentrations of ligands in buffer C consisting of 20 mM Tris-HCl (pH 8.0), 150 mM NaCl, 1 mM Tris 2-carboxyethylphosphine (TCEP)-HCl, and 10% glycerol. The circular dichroism (CD) spectra were monitored within a 200–260 nm range at increasing temperatures from 30 °C to 70 °C (2 °C/min) using a J-1500 spectropolarimeter equipped with a PTC-510 thermal controller (JASCO, Tokyo, Japan). […] The ligand-induced increases in the Tm values were defined as ∆Tm.
Nuclear receptors, including PPARs, display an increased thermal stability upon ligand binding, which is detectable through CD spectroscopy.
Figure 3 Circular dichroism-based PPARα/δ/γ-LBD thermal stability assay. […] Data are presented as the mean ± SE of three or four (in parentheses) independent experiments. Differences vs. basal levels (with 0.1% DMSO) were statistically assessed by one-way ANOVA, followed by a Dunnett’s post hoc test: * p < 0.05, ** p < 0.01, and *** p < 0.001.

PPARδ-LBD = target: T4, PPARδ-LBD (Homo sapiens, UniProt Q03181); test: TR-FRET SRC1 coactivator recruitment assay; assay type: biochemical; parameters: PPARδ-LBD (amino acids 170–441); made in house; host or cells: Rosetta (DE3) pLysS (E. coli); conditions: for EC50: TR-FRET, SRC1 peptide, read-out: EC50, SRC1 recruitment to PPARδ-LBD
T4 sequence (Q03181 170-441): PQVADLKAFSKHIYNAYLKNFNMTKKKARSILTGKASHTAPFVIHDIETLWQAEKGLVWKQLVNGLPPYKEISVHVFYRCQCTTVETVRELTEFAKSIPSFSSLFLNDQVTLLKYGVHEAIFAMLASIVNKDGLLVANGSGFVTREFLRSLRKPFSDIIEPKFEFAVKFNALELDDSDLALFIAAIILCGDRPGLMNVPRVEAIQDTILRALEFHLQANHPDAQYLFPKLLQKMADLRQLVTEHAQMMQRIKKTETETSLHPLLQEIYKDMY
Protocol: Subsequently, 5 µL of 4 nM Eu-W1024-labeled anti-6×His antibody/80 nM ULight-Streptavidin (PerkinElmer) was added to each well, and the microplate was incubated in the dark for 2 h, at room temperature. […] The nonlinear fitting and the calculation of the EC50 were performed using the Prism 9 software (GraphPad, San Diego, CA, USA).
The ligand-bound activated forms of PPARs are stabilized by associations with specific coactivators, thereby enabling the regulation of specific gene expression.
Figure 2 TR-FRET-based LBD-mediated human PPARα/δ/γ coactivator recruitment assay. […] Data are presented as the mean ± SE of three or four independent experiments with duplicate samples, and the calculated EC50 values are shown.

Structure (SMILES)	Emax (human PPARδ)	Emax (human PPARγ)	EC50 (human PPARγ)	Effect on Tm of PPARα-LBD (in words) (PPARα-LBD)	EC50 (human PPARδ)	EC50 (PPARδ-LBD)	Efficacy, SRC1 recruitment to PPARδ-LBD (PPARδ-LBD; 100% = 1 µM GW501516)
CSc1ccc(C(=O)/C=C/c2cc(C)c(OC(C)(C)C(=O)O)c(C)c2)cc1 [elafibranor]	14.8%	38.5%	2120 nM	did not significantly alter the Tm values			
O=C(O)CCCc1cc2cc(Cl)ccc2n1S(=O)(=O)c1ccc2ncsc2c1 [lanifibranor]	13.3%	24.9%	572 nM	increased the Tm values	398 nM	4440 nM	
CCO[C@@H](Cc1ccc(OCCn2c(C)ccc2-c2ccc(SC)cc2)cc1)C(=O)O [saroglitazar]	6%	89.4%	311 nM	highly increased the Tm values	> 10000 nM	> 100000 nM	
CCO[C@H](COc1ccc(C(F)(F)F)cc1)CSc1ccc(OCC(=O)O)c(C)c1 [seladelpar]	99.3%	58.5%	3530 nM	increased the Tm values	20.2 nM	111 nM	83.0%
